Patent US11927585B2, “Solvent-based inks and coatings for food contact applications” (SUN CHEMICAL CORPORATION, priority 2020, dated 2024)
Read-outs that look alike come from different tables or passages of the source.

Key:
[1] = Worst-case calculation (100% migration), standard EU Cube exposure model; details: for Worst Case Calculation of migration in EU Cube model (as a percentage of SML) / Worst-case calculation as a percentage of SML (or restriction), EU Cube: 100% migration; for Worst Case Calculation of migration in EU Cube model (as a percentage of SML): dry coat weight 2.0 g/m^2; for Worst Case Calculation of migration in EU Cube model: Basis for Safety outcome: volatile substance; for Worst-case calculation as a percentage of SML (or restriction), EU Cube: 2.0 g/m^2 dry film
[2] = cited from earlier work
[3] = Worst-case calculation, Application 1 yoghurt pot lid exposure scenario; details: 100% migration, 2.0 g/m^2 dry film
[4] = Worst-case calculation, Application 2 cheese packaging wrap exposure scenario; details: 100% migration, 2.0 g/m^2 dry film
[5] = Specific migration limit (SML) from regulation or hazard assessment (TTC, VEGA QSAR, Cramer Class); details: source HA (internal hazard assessment), self-derived SML; EU Cube model
[6] = substance in ink SBDEV980 (Ex. 4B Red)
[7] = substance in ink SBDEV976 (Ex. 4C Cyan)
[8] = substance in ink SBDEV977 (Ex. 4A Yellow)
[9] = substance in ink SBDEV979 (Ex. 4D Black)

Row | Compound | Worst Case Calculation of migration in EU Cube model (as a percentage of SML) [1, 6] | Worst-case calculation as a percentage of SML (or restriction), EU Cube ([1]; product SBDEV976) | Worst-case calculation as a percentage of SML (or restriction), EU Cube ([1]; product SBDEV977) | Worst-case calculation as a percentage of SML (or restriction), EU Cube ([1]; product SBDEV980) | Worst-case calculation as a percentage of SML (or restriction), EU Cube ([1]; product SBDEV1284) | Worst-case calculation as a percentage of SML (or restriction), EU Cube ([1]; product SBDEV1285) | Worst-case calculation as a percentage of SML (or restriction), EU Cube ([1]; product SBDEV1286) | Worst-case calculation as a percentage of SML (or restriction), EU Cube ([1]; product SBDEV1287) | Worst Case Calculation of migration in EU Cube model (as a percentage of SML) [1, 7] | Worst Case Calculation of migration in EU Cube model (as a percentage of SML) [1, 8] | Worst Case Calculation of migration in EU Cube model (as a percentage of SML) [1, 9] | Worst-case calculation as a percentage of SML (or restriction), Application 1 ([3]; product SBDEV976) | Worst-case calculation as a percentage of SML (or restriction), Application 1 ([3]; product SBDEV977) | Worst-case calculation as a percentage of SML (or restriction), Application 1 ([3]; product SBDEV980) | Worst-case calculation as a percentage of SML (or restriction), Application 1 ([3]; product SBDEV1284) | Worst-case calculation as a percentage of SML (or restriction), Application 1 ([3]; product SBDEV1285) | Worst-case calculation as a percentage of SML (or restriction), Application 1 ([3]; product SBDEV1286) | Worst-case calculation as a percentage of SML (or restriction), Application 2 ([4]; product SBDEV980) | Worst-case calculation as a percentage of SML (or restriction), Application 2 ([4]; product SBDEV1285) | SML or Restriction (mg substance/kg food) [5] | further results
1 | O=C(O)c1c(-c2ccc(-c3ccccc3)cc2)[nH]c2nc(-c3ccc(-c4ccccc4)cc3)nc(-c3ccc(-c4ccccc4)cc3)c12 [2,4,6-Tris-Biphenyl-4-Yl-7H-Pyrrolo[2,3-D]Pyrimidine-5-Carboxylic Acid] | 380 percentage of SML |  |  |  |  |  |  |  |  |  |  |  |  |  |  |  |  |  |  |  | SML (or restriction) ([2]; Source of SML or restriction: Default 10 ppb): 0.01 mg substance/kg food; SML or Restriction (mg substance/kg food) ([2]; source Default 10 ppb): 0.01 mg substance/kg food
2 | CCO [0000064-17-5, ethanol] |  |  |  |  |  |  |  |  |  |  |  |  |  |  |  |  |  |  |  |  | Worst Case Calculation of migration in EU Cube model: Basis for Safety outcome [1, 7]: Converter; Worst Case Calculation of migration in EU Cube model: Basis for Safety outcome [1, 8]: Converter; Worst Case Calculation of migration in EU Cube model: Basis for Safety outcome [1, 9]: Converter; Worst Case Calculation of migration in EU Cube model: Basis for Safety outcome [1, 6]: Converter; SML or Restriction (mg substance/kg food) ([2]; source PR (EU Plastics Regulation No. 10/2011) or SO (Swiss Ordinance), EU Cube model): 60 mg substance/kg food
3 | CCCC1OC(CCC)OC(CCC)O1 (centres unmarked) [0002396-43-2, 2,4,6-tripropyl-1,3,5-Trioxane] | 66 percentage of SML | 61 percentage of SML (or restriction) | 67 percentage of SML (or restriction) | 60 percentage of SML (or restriction) | 66 percentage of SML (or restriction) | 67 percentage of SML (or restriction) | 61 percentage of SML (or restriction) | 68 percentage of SML (or restriction) | 61 percentage of SML | 67 percentage of SML | 65 percentage of SML | 24.0 percentage of SML (or restriction) | 26.4 percentage of SML (or restriction) | 26.0 percentage of SML (or restriction) | 26.0 percentage of SML (or restriction) | 26.4 percentage of SML (or restriction) | 24.0 percentage of SML (or restriction) | 95.0 percentage of SML (or restriction) | 96.5 percentage of SML (or restriction) | 0.09 mg substance/kg food | Worst-case calculation as a percentage of SML (or restriction), Application 1 ([3]; product SBDEV1287): 26.7 percentage of SML (or restriction); Worst-case calculation as a percentage of SML (or restriction), Application 2 ([4]; product SBDEV976): 87.8 percentage of SML (or restriction); Worst-case calculation as a percentage of SML (or restriction), Application 2 ([4]; product SBDEV977): 96.5 percentage of SML (or restriction); Worst-case calculation as a percentage of SML (or restriction), Application 2 ([4]; product SBDEV1284): 95.0 percentage of SML (or restriction); Worst-case calculation as a percentage of SML (or restriction), Application 2 ([4]; product SBDEV1286): 87.8 percentage of SML (or restriction); Worst-case calculation as a percentage of SML (or restriction), Application 2 ([4]; product SBDEV1287): 97.9 percentage of SML (or restriction)

Second part, led by results:

Row | Worst Case Calculation of migration in EU Cube model (as a percentage of SML) [1, 6] | Worst-case calculation as a percentage of SML (or restriction), EU Cube ([1]; product SBDEV976) | Worst-case calculation as a percentage of SML (or restriction), EU Cube ([1]; product SBDEV977) | Worst-case calculation as a percentage of SML (or restriction), EU Cube ([1]; product SBDEV980) | Worst-case calculation as a percentage of SML (or restriction), EU Cube ([1]; product SBDEV1284) | Worst-case calculation as a percentage of SML (or restriction), EU Cube ([1]; product SBDEV1285) | Worst-case calculation as a percentage of SML (or restriction), EU Cube ([1]; product SBDEV1286) | Worst-case calculation as a percentage of SML (or restriction), EU Cube ([1]; product SBDEV1287) | Worst Case Calculation of migration in EU Cube model (as a percentage of SML) [1, 7] | Worst Case Calculation of migration in EU Cube model (as a percentage of SML) [1, 8] | Worst Case Calculation of migration in EU Cube model (as a percentage of SML) [1, 9] | Worst-case calculation as a percentage of SML (or restriction), Application 1 ([3]; product SBDEV976) | Worst-case calculation as a percentage of SML (or restriction), Application 1 ([3]; product SBDEV977) | Worst-case calculation as a percentage of SML (or restriction), Application 1 ([3]; product SBDEV980) | Worst-case calculation as a percentage of SML (or restriction), Application 1 ([3]; product SBDEV1284) | Worst-case calculation as a percentage of SML (or restriction), Application 1 ([3]; product SBDEV1285) | Worst-case calculation as a percentage of SML (or restriction), Application 1 ([3]; product SBDEV1286) | Worst-case calculation as a percentage of SML (or restriction), Application 2 ([4]; product SBDEV980) | Worst-case calculation as a percentage of SML (or restriction), Application 2 ([4]; product SBDEV1285) | SML or Restriction (mg substance/kg food) [5] | Compound | further results
4 | 16 percentage of SML | 16 percentage of SML (or restriction) | 15 percentage of SML (or restriction) | 16 percentage of SML (or restriction) | 11 percentage of SML (or restriction) | 12 percentage of SML (or restriction) | 12 percentage of SML (or restriction) | 11 percentage of SML (or restriction) | 16 percentage of SML | 15 percentage of SML | 15 percentage of SML | 6.3 percentage of SML (or restriction) | 5.9 percentage of SML (or restriction) | 6.3 percentage of SML (or restriction) | 4.3 percentage of SML (or restriction) | 4.7 percentage of SML (or restriction) | 4.7 percentage of SML (or restriction) | 23.0 percentage of SML (or restriction) | 17.3 percentage of SML (or restriction) | 4.98 mg substance/kg food | O=C1NCCN1 [0000120-93-4, 2-Imidazolidinone] | Worst-case calculation as a percentage of SML (or restriction), EU Cube ([1]; product SBDEV979): 15 percentage of SML (or restriction); Worst-case calculation as a percentage of SML (or restriction), Application 1 ([3]; product SBDEV979): 5.9 percentage of SML (or restriction); Worst-case calculation as a percentage of SML (or restriction), Application 1 ([3]; product SBDEV1287): 4.3 percentage of SML (or restriction); Worst-case calculation as a percentage of SML (or restriction), Application 2 ([4]; product SBDEV976): 23.0 percentage of SML (or restriction); Worst-case calculation as a percentage of SML (or restriction), Application 2 ([4]; product SBDEV977): 21.6 percentage of SML (or restriction); Worst-case calculation as a percentage of SML (or restriction), Application 2 ([4]; product SBDEV979): 21.6 percentage of SML (or restriction); Worst-case calculation as a percentage of SML (or restriction), Application 2 ([4]; product SBDEV1284): 15.8 percentage of SML (or restriction); Worst-case calculation as a percentage of SML (or restriction), Application 2 ([4]; product SBDEV1286): 17.3 percentage of SML (or restriction); Worst-case calculation as a percentage of SML (or restriction), Application 2 ([4]; product SBDEV1287): 15.8 percentage of SML (or restriction)
5 | 5 percentage of SML |  |  | 5 percentage of SML (or restriction) |  | 5 percentage of SML (or restriction) |  |  |  |  |  |  |  | 2.0 percentage of SML (or restriction) |  | 2.0 percentage of SML (or restriction) |  | 7.2 percentage of SML (or restriction) | 7.2 percentage of SML (or restriction) | 0.09 mg substance/kg food | N#Cc1ccc(-c2ccccc2)cc1 [0002920-38-9, 4-Phenylbenzonitrile] | 
